Values after ≈ are worked out from the molar mass of the structure shown.
Legend:
Format in all cases: cell-based
[1] = tested on: Proteus vulgaris OX-19; experiment: Antibacterial activity, agar-dilution MIC, organism No. 20; conditions: Proteus vulgaris, OX19; Organism No. 20, bouillon-agar; read-out: Minimum Inhibitory Concentration
Excerpt: (§1) Agar-dilution method was used for determination of the antibacterial activity and antifungal activity while using bouillon-agar culture medium, and the minimum inhibitory concentration of the specimen was expressed by μg/ml of the culture medium.

[2] = tested on: Pseudomonas aeruginosa IFO 3445; experiment: Antibacterial activity, agar-dilution MIC, organism No. 15; conditions: Pseudomonas aeruginosa, IFO3445; Organism No. 15, bouillon-agar; read-out: Minimum Inhibitory Concentration
Excerpt: as §1

[3] = tested on: Pseudomonas aeruginosa NCTC 10490; experiment: Antibacterial activity, agar-dilution MIC, organism No. 16; conditions: Pseudomonas aeruginosa, NCTC10490; Organism No. 16, bouillon-agar; read-out: Minimum Inhibitory Concentration
Excerpt: as §1

[4] = tested on: Aspergillus niger IFO 6342; experiment: Antifungal activity, agar-dilution MIC, organism No. 30; conditions: Aspergillus niger, IFO6342; Organism No. 30, bouillon-agar; read-out: Minimum Inhibitory Concentration
Excerpt: as §1

[5] = tested on: Enterobacter cloacae 963; experiment: Antibacterial activity, agar-dilution MIC, organism No. 24; conditions: Enterobacter cloacae, 963; Organism No. 24, bouillon-agar; read-out: Minimum Inhibitory Concentration
Excerpt: as §1

[6] = tested on: Streptococcus pyogenes IFO 3340; experiment: Antibacterial activity, agar-dilution MIC, organism No. 26; conditions: Streptococcus pyogenes, IFO3340; Organism No. 26, bouillon-agar; read-out: Minimum Inhibitory Concentration
Excerpt: as §1

[7] = tested on: Streptococcus pyogenes Cook; experiment: Antibacterial activity, agar-dilution MIC, organism No. 4; conditions: Streptococcus pyogenes; Organism No. 4, bouillon-agar; read-out: Minimum Inhibitory Concentration
Excerpt: as §1

[8] = tested on: Klebsiella pneumoniae PCI-602; experiment: Antibacterial activity, agar-dilution MIC, organism No. 7; conditions: Klebsiella pneumoniae, PCI602; Organism No. 7, bouillon-agar; read-out: Minimum Inhibitory Concentration
Excerpt: as §1

[9] = tested on: Salmonella paratyphi-A 1015; experiment: Antibacterial activity, agar-dilution MIC, organism No. 10; conditions: Salmonella enterica, PARATYPHI, read-out: Minimum Inhibitory Concentration
Excerpt: as §1

[10] = tested on: Proteus rettgeri IFO 3850; experiment: Antibacterial activity, agar-dilution MIC, organism No. 22; conditions: Providencia rettgeri, IFO3850; Organism No. 22, bouillon-agar; read-out: Minimum Inhibitory Concentration
Excerpt: as §1

[11] = tested on: Mycoplasma pneumoniae IID817; experiment: Antimycoplasmal activity, MIC by phenol red colour change, organism No. 28; conditions: Mycoplasma, IID817; Organism No. 28, PPLO broth + 1% glucose, 37° C.; read-out: Minimum Inhibitory Concentration (MIC)
Method: Mycoplasma pneumoniae IID817 was used as the test microorganism in a culture medium prepared by adding 1% of glucose to "PPLO broth (manufactured by Difco Co.) liquid culture medium" at 37° C. with phenol red as an indicator, thereby culturing the test microorganism.

[12] = tested on: Salmonella shottmuelleri 8006; experiment: Antibacterial activity, agar-dilution MIC, organism No. 11; conditions: Salmonella, 8006; Organism No. 11, bouillon-agar; read-out: Minimum Inhibitory Concentration
Excerpt: as §1

[13] = tested on: Streptococcus faecium IFO 3826; experiment: Antibacterial activity, agar-dilution MIC, organism No. 27; conditions: Enterococcus faecium, IFO3826; Organism No. 27, bouillon-agar; read-out: Minimum Inhibitory Concentration
Excerpt: as §1

[14] = tested on: Bacillus subtilis ATCC 6633; experiment: Antibacterial activity, agar-dilution MIC, organism No. 14; conditions: Bacillus subtilis, ATCC6633; Organism No. 14, bouillon-agar; read-out: Minimum Inhibitory Concentration
Excerpt: as §1

[15] = tested on: Staphylococcus aureus FDA 209PJc-1; experiment: Antibacterial activity, agar-dilution MIC, organism No. 1; conditions: Staphylococcus aureus, FDA209PJC1; Organism No. 1, bouillon-agar; read-out: Minimum Inhibitory Concentration
Excerpt: as §1

[16] = tested on: Enterobacter aerogenes ATCC 13048; experiment: Antibacterial activity, agar-dilution MIC, organism No. 23; conditions: Klebsiella aerogenes, ATCC13048; Organism No. 23, bouillon-agar; read-out: Minimum Inhibitory Concentration
Excerpt: as §1

[17] = tested on: Staphylococcus aureus Terajima; experiment: Antibacterial activity, agar-dilution MIC, organism No. 2; conditions: Staphylococcus aureus; Organism No. 2, bouillon-agar; read-out: Minimum Inhibitory Concentration
Excerpt: as §1

[18] = tested on: Micrococcus luteus ATCC 9341; experiment: Antibacterial activity, agar-dilution MIC, organism No. 25; conditions: Micrococcus luteus, ATCC9341; Organism No. 25, bouillon-agar; read-out: Minimum Inhibitory Concentration
Excerpt: as §1

[19] = tested on: Staphylococcus aureus MS 353; experiment: Antibacterial activity, agar-dilution MIC, organism No. 3; conditions: Staphylococcus aureus, MS353; Organism No. 3, bouillon-agar; read-out: Minimum Inhibitory Concentration
Excerpt: as §1

[20] = tested on: Proteus vulgaris HX-19; experiment: Antibacterial activity, agar-dilution MIC, organism No. 21; conditions: Proteus vulgaris, HX19; Organism No. 21, bouillon-agar; read-out: Minimum Inhibitory Concentration
Excerpt: as §1

[21] = tested on: Salmonella typhi 901; experiment: Antibacterial activity, agar-dilution MIC, organism No. 9; conditions: Salmonella enterica, TYPHI, read-out: Minimum Inhibitory Concentration
Excerpt: as §1

[22] = tested on: Proteus mirabilis IFO 3849; experiment: Antibacterial activity, agar-dilution MIC, organism No. 19; conditions: Proteus mirabilis, IFO3849; Organism No. 19, bouillon-agar; read-out: Minimum Inhibitory Concentration
Excerpt: as §1

[23] = tested on: Proteus morganii IFO 3848; experiment: Antibacterial activity, agar-dilution MIC, organism No. 18; conditions: Morganella morganii, IFO3848; Organism No. 18, bouillon-agar; read-out: Minimum Inhibitory Concentration
Excerpt: as §1

[24] = tested on: Escherichia coli NIHJ-JC-2; experiment: Antibacterial activity, agar-dilution MIC, organism No. 5; conditions: Escherichia coli, NIHJJC2; Organism No. 5, bouillon-agar; read-out: Minimum Inhibitory Concentration
Excerpt: as §1

[25] = tested on: Salmonella typhimurium IID 971; experiment: Antibacterial activity, agar-dilution MIC, organism No. 8; conditions: Salmonella enterica; Organism No. 8, bouillon-agar; read-out: Minimum Inhibitory Concentration
Excerpt: as §1

[26] = tested on: Escherichia coli K12 C600 IAM 1264; experiment: Antibacterial activity, agar-dilution MIC, organism No. 6; conditions: Escherichia coli, IAM1264; Organism No. 6, bouillon-agar; read-out: Minimum Inhibitory Concentration
Excerpt: as §1

[27] = tested on: Salmonella enteritidis G 14; experiment: Antibacterial activity, agar-dilution MIC, organism No. 12; conditions: Salmonella enterica, ENTERITIDIS; Organism No. 12, bouillon-agar; read-out: Minimum Inhibitory Concentration
Excerpt: as §1

[28] = tested on: Pseudomonas aeruginosa PAO 1; experiment: Antibacterial activity, agar-dilution MIC, organism No. 17; conditions: Pseudomonas aeruginosa, PAO1; Organism No. 17, bouillon-agar; read-out: Minimum Inhibitory Concentration
Excerpt: as §1

[29] = tested on: Candida albicans IAM 4905; experiment: Antifungal activity, agar-dilution MIC, organism No. 29; conditions: Candida albicans, IAM4905; Organism No. 29, bouillon-agar; read-out: Minimum Inhibitory Concentration
Excerpt: as §1

SMILES	MIC [1] [µg/mL]	MIC [2] [µg/mL]	MIC [3] [µg/mL]	MIC [4] [µg/mL]	MIC [5] [µg/mL]	MIC [6] [µg/mL]	MIC [7] [µg/mL]	MIC [8] [µg/mL]	MIC [9] [µg/mL]	MIC [10] [µg/mL]	MIC [12] [µg/mL]	MIC [14] [µg/mL]	MIC [15] [µg/mL]	MIC [17] [µg/mL]	MIC [19] [µg/mL]	MIC [20] [µg/mL]	MIC [21] [µg/mL]	MIC [22] [µg/mL]	MIC [23] [µg/mL]	MIC [24] [µg/mL]	further results
[C-]#[N+]C12CC3(/C=C/C(=O)NCc4ccccc4)OC3C1O2 (stereo not drawn) [Compound No. 24]	0.78 (≈ 2.76 µM)	> 100	> 100	1.56 (≈ 5.53 µM)	> 100	6.25 (≈ 22.1 µM)	6.25 (≈ 22.1 µM)	1.56 (≈ 5.53 µM)	1.56 (≈ 5.53 µM)	3.13 (≈ 11.1 µM)	0.78 (≈ 2.76 µM)	12.5 (≈ 44.3 µM)	0.78 (≈ 2.76 µM)	1.56 (≈ 5.53 µM)	0.78 (≈ 2.76 µM)	< 0.05	3.13 (≈ 11.1 µM)	12.5 (≈ 44.3 µM)	1.56 (≈ 5.53 µM)	12.5 (≈ 44.3 µM)	MIC [11]: < 0.2 µg/mL; MIC [13]: 1.56 µg/mL (≈ 5.53 µM); MIC [16]: > 100 µg/mL; MIC [18]: < 0.05 µg/mL; MIC [25]: 6.25 µg/mL (≈ 22.1 µM); MIC [26]: 6.25 µg/mL (≈ 22.1 µM); MIC [27]: 1.56 µg/mL (≈ 5.53 µM); MIC [28]: > 100 µg/mL; MIC [29]: 0.2 µg/mL (≈ 0.708 µM)
[C-]#[N+]C12CC3(/C=C/C(=O)Nc4ccccc4)OC3C1O2 (stereo not drawn) [Compound No. 36]	0.78 (≈ 2.91 µM)	> 200	> 200	1.56 (≈ 5.81 µM)	200 (≈ 746 µM)	0.2 (≈ 0.746 µM)	1.56 (≈ 5.81 µM)	0.39 (≈ 1.45 µM)	0.39 (≈ 1.45 µM)	3.13 (≈ 11.7 µM)	< 0.05	12.5 (≈ 46.6 µM)	0.39 (≈ 1.45 µM)	0.78 (≈ 2.91 µM)	0.39 (≈ 1.45 µM)	< 0.05	3.13 (≈ 11.7 µM)	12.5 (≈ 46.6 µM)	0.39 (≈ 1.45 µM)	12.5 (≈ 46.6 µM)	MIC [11]: < 0.2 µg/mL; MIC [16]: > 200 µg/mL; MIC [18]: < 0.05 µg/mL; MIC [25]: 12.5 µg/mL (≈ 46.6 µM); MIC [26]: 6.25 µg/mL (≈ 23.3 µM); MIC [27]: 0.78 µg/mL (≈ 2.91 µM); MIC [28]: > 200 µg/mL; MIC [29]: 0.39 µg/mL (≈ 1.45 µM)
[C-]#[N+]C12CC3(/C=C/C(=O)N4CCN(C)CC4)OC3C1O2 (stereo not drawn) [compound 23]	25 (≈ 90.8 µM)	> 200	> 200	3.13 (≈ 11.4 µM)	200 (≈ 726 µM)	50 (≈ 182 µM)	50 (≈ 182 µM)	200 (≈ 726 µM)	25 (≈ 90.8 µM)	> 200	50 (≈ 182 µM)	200 (≈ 726 µM)	200 (≈ 726 µM)	> 200	200 (≈ 726 µM)	25 (≈ 90.8 µM)	12.5 (≈ 45.4 µM)	> 200	12.5 (≈ 45.4 µM)	50 (≈ 182 µM)	MIC [13]: 100 µg/mL (≈ 363 µM); MIC [16]: > 200 µg/mL; MIC [18]: < 0.05 µg/mL; MIC [25]: 50 µg/mL (≈ 182 µM); MIC [26]: 50 µg/mL (≈ 182 µM); MIC [27]: 25 µg/mL (≈ 90.8 µM); MIC [28]: > 200 µg/mL; MIC [29]: 1.56 µg/mL (≈ 5.67 µM)
[C-]#[N+]C12CC3(/C=C/C(=O)N4CCC[C@H]4C(=O)OCc4ccccc4)OC3C1O2 (stereo partly drawn) [compound 32]	> 200	> 200	> 200	> 100	> 200	200 (≈ 526 µM)	> 200	> 200	> 200	> 200	> 200	> 200	200 (≈ 526 µM)	200 (≈ 526 µM)	200 (≈ 526 µM)	> 200	> 200	> 200	> 200	> 200	MIC [11]: > 100 µg/mL; MIC [13]: 200 µg/mL (≈ 526 µM); MIC [18]: 1.56 µg/mL (≈ 4.1 µM); MIC [25]: > 200 µg/mL; MIC [26]: > 200 µg/mL; MIC [27]: > 200 µg/mL; MIC [28]: > 200 µg/mL; MIC [29]: > 100 µg/mL
[C-]#[N+]C12CC3(/C=C/C(=O)NC4C(=O)N5C(C(=O)OCC(=O)c6ccc(Br)cc6)=C(C)CSC45)OC3C1O2 (stereo not drawn) [compound 34]	> 100	> 100	> 100	> 100	> 100	> 100	> 100	> 100	> 100	> 100	> 100	> 100	> 100	> 100	> 100	100 (≈ 171 µM)	> 100	> 100	> 100	> 100	MIC [11]: > 100 µg/mL; MIC [13]: > 100 µg/mL; MIC [16]: > 100 µg/mL; MIC [25]: > 100 µg/mL; MIC [26]: > 100 µg/mL; MIC [27]: > 100 µg/mL; MIC [28]: > 100 µg/mL; MIC [29]: > 100 µg/mL
